From patent US20250250230A1, “HETEROCYCLIC COMPOUND” (TAKEDA PHARMACEUTICAL COMPANY LIMITED, priority 2022, published 2025)

molecular target: T1, human orexin type 2 receptor (Homo sapiens, UniProt O43614); test: Measurement of orexin type 2 receptor agonist activity (calcium fluorescence, Fluo-4 AM, FDSS); format: cell-based; settings: test compound 3 μM; CHO cells expressing human OX2 receptor; DMSO = 0%, orexin A (human) = 100%
T1 construct: expressed in transfected cells
T1 sequence (O43614 1-444): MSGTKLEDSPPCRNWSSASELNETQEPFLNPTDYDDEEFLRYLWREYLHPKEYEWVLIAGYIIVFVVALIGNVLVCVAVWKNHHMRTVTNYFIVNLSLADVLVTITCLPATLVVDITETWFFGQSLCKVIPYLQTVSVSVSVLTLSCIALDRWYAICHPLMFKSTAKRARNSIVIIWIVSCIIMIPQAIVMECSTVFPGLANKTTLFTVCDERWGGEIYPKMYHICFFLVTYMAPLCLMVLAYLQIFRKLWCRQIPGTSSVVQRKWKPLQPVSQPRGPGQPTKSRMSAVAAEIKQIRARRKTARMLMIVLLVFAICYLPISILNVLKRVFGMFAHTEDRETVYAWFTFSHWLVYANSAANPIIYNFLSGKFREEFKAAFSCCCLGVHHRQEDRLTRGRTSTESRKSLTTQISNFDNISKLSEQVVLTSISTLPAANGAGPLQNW
Procedure, shortened: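 CHO-K1 cells stably expressing human OX2R were loaded with Fluo-4 AM (30 min 37 °C, 30 min RT) in HEPES-buffered HBSS with 0.1% BSA and probenecid. Calcium fluorescence was followed on FDSS for 2 min after compound addition; activity normalised to DMSO (0%) and 10 nM orexin A (100%).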

Compound	OX2R agonist activity (3 μM, %) [%]
CS(=O)(=O)NC1CCC2CN(C(=O)C3CC3c3ccccc3-c3c(F)cccc3F)CC21 (stereo not drawn) [Example 238, N-2-[(2-(2′,6′-difluoro[1,1′-biphenyl]-2-yl)cyclopropane-1-carbonyl]octahydrocyclopenta[c]pyrrol-4-yl}methanesulfonamide Optical Isomer]	98
CCS(=O)(=O)N[C@H]1CCCN(C(=O)C2CC2c2ccccc2-c2c(F)cccc2F)C1 (stereo partly drawn) [Example 239, N-{(3S)-1-[(1R,2R)-2-(2′,6′-difluoro[1,1′-biphenyl]-2-yl)cyclopropane-1-carbonyl]piperidin-3-yl}ethanesulfonamide, or N-{(3S)-1-[(1S,2S)-2-(2′,6′-difluoro[1,1′-biphenyl]-2-cyclopropane-1-carbonyl]piperidin-3-yl}ethanesulfonamide]	97
CCS(=O)(=O)N[C@@H]1CN(C(=O)[C@@H]2C[C@H]2c2ccccc2-c2c(F)cccc2F)CCC1(F)F [Example 240, N-{(3R)-1-[(1R,2R)-2-(2′,6′-difluoro[1,1′-biphenyl]-2-yl)cyclopropane-1-carbonyl]-4,4-difluoropiperidin-3-yl}ethanesulfonamide]	100
CS(=O)(=O)N[C@@H]1CN(C(=O)[C@@H]2C[C@H]2c2ccccc2-c2c(F)cccc2F)C[C@@H]1F [Example 241, N-{(3R,4S)-1-[(1R,2R)-2-(2′,6′-difluoro[1,1′-biphenyl]-2-yl)cyclopropane-1-carbonyl]-4-fluoropyrrolidin-3-yl}methanesulfonamide]	103
CS(=O)(=O)NC1CN(C(=O)C2CC2c2ccc(F)cc2-c2c(F)cccc2F)CC1(F)F (stereo not drawn) [Example 245, N-{4,4-difluoro-1-[2-(2′,5,6′-trifluoro[1,1′-biphenyl]-2-yl)cyclopropane-1-carbonyl]pyrrolidin-3-yl}methanesulfonamide optical isomer]	103
CC1(C(=O)N2CCC[C@H](NS(C)(=O)=O)CC2)CC1c1ccccc1-c1c(F)cccc1F (stereo partly drawn) [Example 246, N-{(4S)-1-[(1R,2S)-2-(2′,6′-difluoro[1,1′-biphenyl]-2-yl)-1-methylcyclopropane-1-carbonyl]azepan-4-yl}methanesulfonamide, or N-{(4S)-1-[(1S,2R)-2-(2′,6′-difluoro[1,1′-biphenyl]-2-yl)-1-methylcyclopropane-1-carbonyl]azepan-4-yl}methanesulfonamide]	78
CC1(C(=O)N2CC[C@H](NS(C)(=O)=O)C2)CC1c1ccccc1-c1c(F)cccc1F (stereo partly drawn) [Example 247, N-{(3S)-1-[(1R,2S)-2-(2′,6′-difluoro[1,1′-biphenyl]-2-yl)-1-methylcyclopropane-1-carbonyl]pyrrolidin-3-yl}methanesulfonamide, or N-{(3S)-1-[(1S,2R)-2-(2′,6′-difluoro[1,1′-biphenyl]-2-yl)-1-methylcyclopropane-1-carbonyl]pyrrolidin-3-yl}methanesulfonamide]	100
CC1(C(=O)N2CC(NS(C)(=O)=O)C(F)(F)C2)CC1c1ccccc1-c1c(F)cccc1F (stereo not drawn) [Example 248, N-{1-[2-(2′,6′-difluoro[1,1′-biphenyl]-2-yl)-1-methylcyclopropane-1-carbonyl]-4,4-difluoropyrrolidin-3-yl}methanesulfonamide optical isomer]	98
CS(=O)(=O)NC1COCCN(C(=O)[C@@H]2C[C@H]2c2ccccc2-c2c(F)cccc2F)C1 (stereo partly drawn) [Example 249, N-{(6R)-4-[(1R,2R)-2-(2′,6′-difluoro[1,1′-biphenyl]-2-yl)cyclopropane-1-carbonyl]-1,4-oxazepan-6-yl}methanesulfonamide, or N-{(6S)-4-[(1R,2R)-2-(2′,6′-difluoro[1,1′-biphenyl]-2-yl)cyclopropane-1-carbonyl]-1,4-oxazepan-6-yl}methanesulfonamide]	105
CN(C)S(=O)(=O)NCC1CCN1C(=O)C1CC1c1ccccc1-c1c(F)cccc1F (stereo not drawn) [Example 250, N′-({1-[2-(2′,6′-difluoro[1,1′-biphenyl]-2-yl)cyclopropane-1-carbonyl]azetidin-2-yl}methyl)-N,N-dimethylsulfuric diamide optical isomer]	104
CN(C)S(=O)(=O)NC[C@@H]1CCN1C(=O)[C@@H]1C[C@H]1c1ccccc1-c1c(F)cccc1F [Example 259, N′-({(2S)-1-[(1R,2R)-2-(2′,6′-difluoro[1,1′-biphenyl]-2-yl)cyclopropane-1-carbonyl]azetidin-2-yl}methyl)-N,N-dimethylsulfuric Diamide]	98

The remaining lines, values ahead:

OX2R agonist activity (3 μM, %) [%]	Compound
109	C[C@H]1C[C@H](NS(C)(=O)=O)CN1C(=O)[C@@H]1C[C@H]1c1ccccc1-c1c(F)cccc1F [Example 262, N-{(3S,5S)-1-[(1R,2R)-2-(2′,6′-difluoro[1,1′-biphenyl]-2-yl)cyclopropane-1-carbonyl]-5-methylpyrrolidin-3-yl}methanesulfonamide]
98	C[C@@H]1C[C@H](NS(C)(=O)=O)CN1C(=O)[C@@H]1C[C@H]1c1ccccc1-c1c(F)cccc1F [Example 263, N-{(3S,5R)-1-[(1R,2R)-2-(2′,6′-difluoro[1,1′-biphenyl]-2-yl)cyclopropane-1-carbonyl]-5-methylpyrrolidin-3-yl}methanesulfonamide]
97	C[C@@H]1CN(C(=O)[C@@H]2C[C@H]2c2ccccc2-c2c(F)cccc2F)C[C@H]1NS(C)(=O)=O [Example 264, N-{(3S,4R)-1-[(1R,2R)-2-(2′,6′-difluoro[1,1′-biphenyl]-2-yl)cyclopropane-1-carbonyl]-4-methylpyrrolidin-3-yl}methanesulfonamide]
86	C[C@H]1CN(C(=O)[C@@H]2C[C@H]2c2ccccc2-c2c(F)cccc2F)C[C@H]1NS(C)(=O)=O [Example 265, N-{(3S,4S)-1-[(1R,2R)-2-(2′,6′-difluoro[1,1′-biphenyl]-2-yl)cyclopropane-1-carbonyl]-4-methylpyrrolidin-3-yl}methanesulfonamide]
100	CS(=O)(=O)N[C@@H]1CN(C(=O)[C@@H]2C[C@H]2c2ccccc2-c2c(F)cccc2F)CC[C@H]1O [Example 269, N-{(3R,4R)-1-[(1R,2R)-2-(2′,6′-difluoro[1,1′-biphenyl]-2-yl)cyclopropane-1-carbonyl]-4-hydroxypiperidin-3-yl}methanesulfonamide]
64	CS(=O)(=O)N[C@@H]1CN(C(=O)[C@@H]2C[C@H]2c2ccccc2-c2c(F)cccc2F)CC[C@@H]1O [Example 270, N-{(3R,4S)-1-[(1R,2R)-2-(2′,6′-difluoro[1,1′-biphenyl]-2-yl)cyclopropane-1-carbonyl]-4-hydroxypiperidin-3-yl}methanesulfonamide]
87	CS(=O)(=O)N[C@@H]1CN(C(=O)[C@@H]2C[C@H]2c2ccccc2-c2c(F)cccc2F)CC(F)(F)C1 [Example 271, N-{(3S)-1-[(1R,2R)-2-(2′,6′-difluoro[1,1′-biphenyl]-2-yl)cyclopropane-1-carbonyl]-5,5-difluoropiperidin-3-yl}methanesulfonamide]
99	CS(=O)(=O)NC12CC1CN(C(=O)C1CC1c1ccccc1-c1c(F)cccc1F)C2 (stereo not drawn) [Example 272, N-{3-[2-(2′,6′-difluoro[1,1′-biphenyl]-2-yl)cyclopropane-1-carbonyl]-3-azabicyclo[3.1.0]hexan-1-yl}methanesulfonamide optical isomer]
